# In patent US9034825B2, “Treatment of myocardial injury with humanin analogs” (Albert Einstein College of Medicine of Yeshiva University, priority 2007, dated 2015):
# Experiments:
# [1] = tested on: phospho Akt and ACC in muscle; assay: Western blot of skeletal muscle insulin signaling after ICV infusion; assay type: in vivo, rat; conditions: muscle tissues from ICV-infused rats
# Method: (§1) The indicated tissues were homogenized in 20 mM MOPS, 2 mM EGTA, 5 mM EDTA, 30 mM sodium fluoride, 40 mM beta-glycerophosphate, 10 mM sodium pyrophosphate, 2 mM orthovanadate, 0.5% NP-40 and complete protease inhibitor cocktail (Roche, Indianapolis, Ind., USA) and centrifuged at 12,000 g for 15 min and the supernatant was harvested while carefully avoiding the lipid layer on top. Protein concentration was measured with a BCA protein quantification kit (Pierce, Rockford, Ill., USA). Protein extracts were separated on 4-12% NuPAGE (Invitrogen, Carlsbad, Calif., USA) gels and were blotted onto Immobilon FL PVDF (Millipore, Billerica, Mass., USA). […] After three washes in TBS-T and a final wash in TBS the blots were scanned using the LI-COR Odyssey (LI-COR, Lincoln, Nebr., USA) and quantified using Odyssey 2.0 software based on direct fluorescence measurement.
# (§2) For acute signaling studies, rats were injected ICV with either aCSF, 20 μg of HN or F6A (dissolved in aCSF) over 5 min, and sacrificed 30 min later. […] Samples were also obtained from these tissues at the end of the clamp and western blot analysis was performed as described previously (Muzumdar et al. 2003) The blots were scanned using the LI-COR Odyssey (LI-COR, Lincoln, Nebr., USA) and quantified using Odyssey 2.0 software based on direct fluorescence measurement. […]
# [2] = tested on: phospho STAT-3 in hypothalamus; assay: Western blot of hypothalamic STAT-3 phosphorylation after ICV infusion; assay type: in vivo, rat; conditions: within an hour of ICV HN infusion
# Method: as §1, §2
# [3] = tested on: signaling kinases in hypothalamus and liver; assay: Western blot of other signaling in hypothalamus and liver after ICV infusion; assay type: in vivo, rat; conditions: ICV HN
# Method: as §1, §2
# [4] = tested on: primary hepatocytes; assay: Glucose production of primary isolated hepatocytes; assay type: cell-based; conditions: rat hepatocytes explant cultures
# Method: (§3) Single-cell suspensions of hepatocytes were obtained from perfusions of Sprague-Dawley rats using the procedure of Berry and Friend (1969) and the perfusion mixture of Leffert et al (1979). Hepatocyte glucose production was estimated after a 24 hr treatment with HN, F6A and saline as described before (Berg et al. 2001). In a separate set of experiment, hepatocytes were lysed, and protein extracted in RIPA lysis buffer at 30, 60 and 360 min post treatment with FIN, F6A and saline. The cell lysates were then subject to western blotting for Phospho-STAT3 (Tyr705), total-STAT3, Phospho-AKT (Ser473), and total-AKT expression (antibodies purchased from Cell Signaling, #9131, #9132, #9271, #9272).
# [5] = tested on: pAKT and pSTAT-3 in hepatocytes; assay: Western blot of Phospho-STAT3 and Phospho-AKT in primary hepatocytes; assay type: cell-based, rat
# Method: as §3
smiles,measurement,setting,value
"CC[C@H](C)[C@H](NC(=O)[C@H](CCC(=O)O)NC(=O)[C@H](CO)NC(=O)[C@@H](NC(=O)[C@H](CC(C)C)NC(=O)[C@H](CC(C)C)NC(=O)[C@H](CC(C)C)NC(=O)[C@H](CC(C)C)NC(=O)[C@H](CS)NC(=O)[C@H](CO)NC(=O)[C@H](Cc1ccccc1)NC(=O)CNC(=O)[C@H](CCCNC(=N)N)NC(=O)[C@@H]1CCCN1C(=O)[C@H](C)NC(=O)[C@@H](N)CCSC)[C@@H](C)O)C(=O)N[C@@H](CC(=O)O)C(=O)N[C@@H](CC(C)C)C(=O)N1CCC[C@H]1C(=O)N[C@H](C(=O)N[C@@H](CCCCN)C(=O)N[C@@H](CCCNC(=N)N)C(=O)N[C@@H](CCCNC(=N)N)C(=O)N[C@@H](C)C(=O)O)C(C)C [Humanin, maprgfscll lltseidlpv krra]",pAKT and acetyl CoA carboxylase in muscle compared to aCSF,[1],significantly increased
same,increase in STAT-3 phosphorylation in hypothalamic tissues,[2],10 fold
same,"liver pAKT, PGC-1b, FAS, p38, CREB, ACC vs control groups",[3],no significant differences
same,phosphorylation in other signaling kinases in the hypothalamus including AKT,[3],Unchanged levels of phosphorylation
same,glucose production rates with and without HN,[4],not different
same,pAKT or pSTAT-3 in hepatocytes,[5],did not elicit significant changes
